Test results from patent publication US20110003692A1, “HERBICIDALLY AND INSECTICIDALLY ACTIVE PHENYL-SUBSTITUTED PYRIDAZINONES” (BAYER CROPSCIENCE AG, priority 2008, published 2011).

Legend:
[1] = system: eggs from the tobacco budworm (Heliotis virescens); assay: Heliothis virescens test (spray treatment); assay type: in vivo; conditions: application rate 500 g/ha, spray on soybean leaves, after 7 days
Experimental: • 78.0 parts by weight of acetone • 1.5 parts by weight of dimethylformamide Emulsifier: 0.5 part by weight of alkylaryl polyglycol ether
To produce a suitable preparation of active compound, 1 part by weight of active compound is mixed with the stated amounts of solvents and emulsifier, and the concentrate is diluted with emulsifier-containing water to the desired concentration. Soybean leaves (Glycine max.) are sprayed with an active compound preparation of the desired concentration and populated with eggs from the tobacco budworm (Heliotis virescens). After 7 days, the effect in % is determined. 100% means that all eggs have been killed, 0% means that no eggs have been killed.

melting point [°C] | SMILES | effect in % (eggs killed) [1]
176 | COc1cnn(C)c(=O)c1-c1ccc(Cl)c(Cl)c1 [I-1-h-1, 4-(3,4-dichlorophenyl)-5-methoxy-2-methyl-3(2H)-pyridazinone] | 
 | CC(C)(C)n1ncc(O)c(-c2ccc(Cl)cc2Cl)c1=O [I-1-a-5] | at least 80%
